The values below come from patent US20210255193A1, “LYSINE REACTIVE PROBES AND USES THEREOF” (The Scripps Research Institute, priority 2017, published 2021).

Assay in all cases: competitive isoTOP-ABPP
What all share (type): binding

Assay [1] deals with T1, MAP2K3 Dual specificity mitogen-activated protein kinase (Homo sapiens, UniProt P46734).
T1 construct: isoTOP-ABPP experiments performed in cell lysates (in vitro); endogenous in cells; host or cells: soluble proteome of human cancer cell lines (MDA-MB-231; Ramos and Jurkat also prepared)
T1 sequence (P46734 1-347): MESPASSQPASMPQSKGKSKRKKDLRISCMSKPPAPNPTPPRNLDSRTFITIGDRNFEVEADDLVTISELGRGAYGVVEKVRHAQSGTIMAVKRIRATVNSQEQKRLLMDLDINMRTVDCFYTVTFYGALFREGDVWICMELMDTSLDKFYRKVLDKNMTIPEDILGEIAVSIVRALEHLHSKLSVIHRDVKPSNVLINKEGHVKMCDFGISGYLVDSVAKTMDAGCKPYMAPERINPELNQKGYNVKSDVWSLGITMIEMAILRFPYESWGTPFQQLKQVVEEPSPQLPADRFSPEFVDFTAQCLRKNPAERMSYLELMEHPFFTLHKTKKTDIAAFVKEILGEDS
Particulars: for isoTOP-ABPP ratio (R) at liganded lysine P46734_K93: sol, 231. The method in brief: (§1)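 Lysate + fragment (50 μM activated ester / 100 μM guanidinylating agent) or DMSO → 0.1 mM STP-alkyne, 1 h, RT → CuAAC to TEV tags (compound light, DMSO heavy) → LC-MS. R = heavy/light MS1 area; liganded lysine if R≥4.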

For assay [2], the target named is T2, MTOR Serine/threonine-protein kinase mTOR (Homo sapiens, UniProt P42345).
T2 construct: isoTOP-ABPP experiments performed in cell lysates (in vitro); endogenous in cells; host or cells: soluble proteome of human cancer cell lines (MDA-MB-231; Ramos and Jurkat also prepared)
As to conditions: for isoTOP-ABPP ratio (R) at liganded lysine P42345_K2066: sol, 231. The method in brief:
as §1

Assay [3] has as its target T3, DYNC1H1 Cytoplasmic dynein 1 heavy chain 1 (Homo sapiens, UniProt Q14204).
T3 construct: isoTOP-ABPP experiments performed in cell lysates (in vitro); endogenous in cells; host or cells: soluble proteome of human cancer cell lines (MDA-MB-231, Ramos, Jurkat)
Particulars: for isoTOP-ABPP ratio (R) at liganded lysine Q14204_K1649: sol, 231; for isoTOP-ABPP ratio, lysine Q14204_K1649: 50 uM_231_sol_in vitro. In a few lines: as §1

Assay [4] addresses T4, MRPS24 28S ribosomal protein S24, mitochondrial (Homo sapiens, UniProt Q96EL2).
T4 construct: isoTOP-ABPP experiments performed in cell lysates (in vitro); endogenous in cells; host or cells: soluble proteome of human cancer cell lines (MDA-MB-231; Ramos and Jurkat also prepared)
Particulars: for isoTOP-ABPP ratio (R) at liganded lysine Q96EL2_K94: sol, 231. The method in brief: as §1

Assay [5] deals with T5, RPL10 60S ribosomal protein L10 (Homo sapiens, UniProt P27635).
T5 construct: isoTOP-ABPP experiments performed in cell lysates (in vitro); endogenous in cells; host or cells: soluble proteome of human cancer cell lines (MDA-MB-231; Ramos and Jurkat also prepared)
Particulars: for isoTOP-ABPP ratio (R) at liganded lysine P27635_K121: 50 uM, in vitro, sol, 231. The method in brief:
as §1

In assay [6] the target is T6, HNRNPK Heterogeneous nuclear ribonucleoprotein K (Homo sapiens, UniProt P61978).
T6 construct: isoTOP-ABPP experiments performed in cell lysates (in vitro); endogenous in cells; host or cells: soluble proteome of human cancer cell lines (MDA-MB-231, Ramos, Jurkat)
As to conditions: for isoTOP-ABPP ratio (R) at liganded lysine P61978_K405: 50 uM, in vitro, sol, 231. In a few lines:
as §1

T3 sequence (Q14204 whole entry): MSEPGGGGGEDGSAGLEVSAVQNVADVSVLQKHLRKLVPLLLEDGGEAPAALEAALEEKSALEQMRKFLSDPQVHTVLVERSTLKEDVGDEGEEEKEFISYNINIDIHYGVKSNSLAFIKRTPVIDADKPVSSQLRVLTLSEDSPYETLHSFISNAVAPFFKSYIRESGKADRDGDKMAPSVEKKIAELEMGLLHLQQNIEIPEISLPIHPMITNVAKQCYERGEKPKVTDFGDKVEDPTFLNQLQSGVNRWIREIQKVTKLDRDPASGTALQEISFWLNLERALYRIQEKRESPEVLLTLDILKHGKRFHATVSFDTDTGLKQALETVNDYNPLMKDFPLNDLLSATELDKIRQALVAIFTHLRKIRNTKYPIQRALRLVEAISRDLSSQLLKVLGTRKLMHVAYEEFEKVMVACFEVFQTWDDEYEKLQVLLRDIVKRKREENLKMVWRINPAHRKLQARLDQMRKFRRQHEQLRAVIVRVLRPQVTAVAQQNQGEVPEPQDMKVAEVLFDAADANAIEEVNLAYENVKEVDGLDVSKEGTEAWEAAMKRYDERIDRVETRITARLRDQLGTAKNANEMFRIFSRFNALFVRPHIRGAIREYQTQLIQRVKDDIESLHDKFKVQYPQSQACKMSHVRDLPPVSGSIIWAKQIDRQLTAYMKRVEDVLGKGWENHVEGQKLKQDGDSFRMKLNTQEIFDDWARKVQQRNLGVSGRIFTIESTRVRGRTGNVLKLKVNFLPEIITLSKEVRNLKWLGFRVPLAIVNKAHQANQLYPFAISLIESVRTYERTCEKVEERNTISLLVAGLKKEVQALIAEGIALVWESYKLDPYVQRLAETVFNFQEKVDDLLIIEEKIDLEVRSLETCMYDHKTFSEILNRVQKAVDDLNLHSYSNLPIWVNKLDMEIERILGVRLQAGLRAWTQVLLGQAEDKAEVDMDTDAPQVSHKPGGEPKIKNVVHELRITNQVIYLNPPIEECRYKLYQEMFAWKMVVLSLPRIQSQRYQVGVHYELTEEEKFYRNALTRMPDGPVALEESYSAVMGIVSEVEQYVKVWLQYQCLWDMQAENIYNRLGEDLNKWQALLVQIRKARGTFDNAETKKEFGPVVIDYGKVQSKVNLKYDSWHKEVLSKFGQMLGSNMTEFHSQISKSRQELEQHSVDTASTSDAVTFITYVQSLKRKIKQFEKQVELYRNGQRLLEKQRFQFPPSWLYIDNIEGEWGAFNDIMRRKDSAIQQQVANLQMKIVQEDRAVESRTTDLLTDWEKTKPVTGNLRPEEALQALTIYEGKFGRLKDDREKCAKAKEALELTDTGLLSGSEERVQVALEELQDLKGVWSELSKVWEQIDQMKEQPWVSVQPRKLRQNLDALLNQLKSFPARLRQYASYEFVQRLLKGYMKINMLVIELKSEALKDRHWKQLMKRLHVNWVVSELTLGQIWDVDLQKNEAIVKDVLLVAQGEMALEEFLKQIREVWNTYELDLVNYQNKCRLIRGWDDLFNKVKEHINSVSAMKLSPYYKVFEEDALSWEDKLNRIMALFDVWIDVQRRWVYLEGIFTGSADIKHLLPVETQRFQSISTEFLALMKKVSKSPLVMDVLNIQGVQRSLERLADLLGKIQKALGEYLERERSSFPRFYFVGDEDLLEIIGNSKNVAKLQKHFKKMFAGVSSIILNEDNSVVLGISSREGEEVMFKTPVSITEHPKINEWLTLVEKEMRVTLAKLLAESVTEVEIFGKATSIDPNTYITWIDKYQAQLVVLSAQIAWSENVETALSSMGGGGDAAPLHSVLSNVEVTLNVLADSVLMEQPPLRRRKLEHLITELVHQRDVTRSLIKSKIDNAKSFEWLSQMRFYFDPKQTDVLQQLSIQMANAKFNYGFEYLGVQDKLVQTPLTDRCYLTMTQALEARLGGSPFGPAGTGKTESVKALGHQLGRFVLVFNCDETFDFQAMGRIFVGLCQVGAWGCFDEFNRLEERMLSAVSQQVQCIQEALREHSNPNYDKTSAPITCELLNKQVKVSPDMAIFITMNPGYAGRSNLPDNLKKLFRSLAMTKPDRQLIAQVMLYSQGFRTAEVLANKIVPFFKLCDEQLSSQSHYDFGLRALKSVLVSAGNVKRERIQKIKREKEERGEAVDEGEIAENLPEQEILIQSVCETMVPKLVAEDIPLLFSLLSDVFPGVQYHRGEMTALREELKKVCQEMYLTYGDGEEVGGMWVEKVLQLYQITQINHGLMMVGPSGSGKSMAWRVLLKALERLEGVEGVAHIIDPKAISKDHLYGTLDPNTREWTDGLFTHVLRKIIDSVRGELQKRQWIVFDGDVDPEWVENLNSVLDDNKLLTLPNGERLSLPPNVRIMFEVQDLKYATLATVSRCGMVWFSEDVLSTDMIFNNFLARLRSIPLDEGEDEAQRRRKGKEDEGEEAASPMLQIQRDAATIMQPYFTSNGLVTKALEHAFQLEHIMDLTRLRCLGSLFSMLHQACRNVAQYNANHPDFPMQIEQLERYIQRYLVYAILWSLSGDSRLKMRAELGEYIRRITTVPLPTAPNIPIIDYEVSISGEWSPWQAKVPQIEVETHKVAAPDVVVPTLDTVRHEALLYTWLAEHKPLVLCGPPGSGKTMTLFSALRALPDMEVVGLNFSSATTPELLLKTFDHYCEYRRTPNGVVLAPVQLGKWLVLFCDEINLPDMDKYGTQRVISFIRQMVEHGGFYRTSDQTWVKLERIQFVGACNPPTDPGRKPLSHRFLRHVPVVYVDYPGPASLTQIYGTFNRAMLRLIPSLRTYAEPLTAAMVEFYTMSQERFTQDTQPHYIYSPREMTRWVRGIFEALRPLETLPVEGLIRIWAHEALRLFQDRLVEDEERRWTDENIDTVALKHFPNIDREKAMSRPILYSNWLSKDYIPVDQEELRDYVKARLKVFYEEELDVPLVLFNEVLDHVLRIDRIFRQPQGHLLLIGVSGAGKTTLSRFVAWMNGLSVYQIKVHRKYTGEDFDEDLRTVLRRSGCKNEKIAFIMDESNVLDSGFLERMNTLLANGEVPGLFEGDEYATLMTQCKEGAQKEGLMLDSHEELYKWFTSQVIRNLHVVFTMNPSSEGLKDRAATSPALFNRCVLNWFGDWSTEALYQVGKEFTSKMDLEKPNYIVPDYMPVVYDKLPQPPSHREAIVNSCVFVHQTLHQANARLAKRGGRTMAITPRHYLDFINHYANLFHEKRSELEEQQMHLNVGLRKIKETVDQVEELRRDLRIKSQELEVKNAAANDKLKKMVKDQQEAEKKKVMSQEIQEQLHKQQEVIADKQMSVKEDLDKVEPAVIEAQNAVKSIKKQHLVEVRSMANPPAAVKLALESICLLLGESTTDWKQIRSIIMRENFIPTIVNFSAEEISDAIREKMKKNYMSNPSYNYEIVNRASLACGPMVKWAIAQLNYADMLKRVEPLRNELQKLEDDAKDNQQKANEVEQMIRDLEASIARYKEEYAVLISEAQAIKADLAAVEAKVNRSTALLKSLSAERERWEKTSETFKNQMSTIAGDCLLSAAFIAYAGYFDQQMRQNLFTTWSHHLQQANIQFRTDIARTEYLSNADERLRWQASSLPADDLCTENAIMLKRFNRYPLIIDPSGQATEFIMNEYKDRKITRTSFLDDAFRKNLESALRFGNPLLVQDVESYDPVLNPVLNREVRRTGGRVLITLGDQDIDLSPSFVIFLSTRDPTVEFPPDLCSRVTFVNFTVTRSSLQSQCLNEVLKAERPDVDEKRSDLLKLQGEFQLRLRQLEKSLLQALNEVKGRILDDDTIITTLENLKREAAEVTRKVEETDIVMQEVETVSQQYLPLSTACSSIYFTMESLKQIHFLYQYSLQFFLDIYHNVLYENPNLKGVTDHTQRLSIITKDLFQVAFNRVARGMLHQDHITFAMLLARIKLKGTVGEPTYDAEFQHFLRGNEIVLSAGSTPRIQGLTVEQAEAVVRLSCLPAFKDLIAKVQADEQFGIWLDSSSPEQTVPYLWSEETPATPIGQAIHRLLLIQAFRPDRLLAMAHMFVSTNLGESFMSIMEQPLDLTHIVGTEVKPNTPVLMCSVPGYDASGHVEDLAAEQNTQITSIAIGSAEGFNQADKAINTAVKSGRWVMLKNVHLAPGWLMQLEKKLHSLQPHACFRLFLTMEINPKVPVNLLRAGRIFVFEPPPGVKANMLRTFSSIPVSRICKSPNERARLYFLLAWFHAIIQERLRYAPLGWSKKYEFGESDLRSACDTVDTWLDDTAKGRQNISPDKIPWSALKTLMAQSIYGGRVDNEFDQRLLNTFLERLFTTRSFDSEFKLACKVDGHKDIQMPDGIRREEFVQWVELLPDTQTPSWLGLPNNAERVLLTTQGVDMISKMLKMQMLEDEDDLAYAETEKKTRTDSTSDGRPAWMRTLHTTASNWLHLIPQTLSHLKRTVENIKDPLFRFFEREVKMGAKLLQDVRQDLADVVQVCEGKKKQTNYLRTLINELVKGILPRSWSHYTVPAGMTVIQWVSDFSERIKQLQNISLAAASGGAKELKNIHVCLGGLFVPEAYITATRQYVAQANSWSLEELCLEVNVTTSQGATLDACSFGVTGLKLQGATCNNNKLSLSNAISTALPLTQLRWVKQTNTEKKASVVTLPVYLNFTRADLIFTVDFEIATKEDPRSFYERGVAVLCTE

Consider `COc1cc(CCC(=O)Oc2ccc([N+](=O)[O-])cc2[N+](=O)[O-])cc(OC)c1OC` [fragment 33, 2,4-Dinitrophenyl 3-(3,4,5-trimethoxyphenyl)propanoate], for which the “isoTOP-ABPP reactivity ratio at lysine P46734_K93” value in assay [1] (50 uM, 231 sol, in vitro) was 0.9. For the same compound, the “isoTOP-ABPP reactivity ratio at lysine P42345_K2066” value in assay [2] (50 uM, 231 sol, in vitro) is listed as 1.1. In addition, in assay [3] (50 uM, 231 sol, in vitro), the “isoTOP-ABPP reactivity ratio at lysine Q14204_K1649” value was found to be 1.1. Also, the “isoTOP-ABPP reactivity ratio at lysine Q96EL2_K94” value in assay [4] (50 uM, 231 sol, in vitro) is listed as 1.4.
As for `O=C(Oc1ccc([N+](=O)[O-])cc1[N+](=O)[O-])C1CCN(C(=O)OCc2ccccc2)CC1` [fragment 34, 1-Benzyl 4-(2,4-dinitrophenyl) piperidine-1,4-dicarboxylate], the “isoTOP-ABPP ratio (R) at liganded lysine P46734_K93” value in assay [1] (50 uM, in vitro) was found to be 0.8. Further, in assay [2] (50 uM, in vitro), the “isoTOP-ABPP ratio (R) at liganded lysine P42345_K2066” value came out at 1.1. Further, in assay [5], the “isoTOP-ABPP ratio (R) at liganded lysine P27635_K121” value was 1.3. Moreover, in assay [4] (50 uM, in vitro), the “isoTOP-ABPP ratio (R) at liganded lysine Q96EL2_K94” value is listed as 1.4. Besides, in assay [6], the “isoTOP-ABPP ratio (R) at liganded lysine P61978_K405” value is 1.4.
Consider `O=C(CCc1coc2cc(F)ccc2c1=O)Oc1ccc([N+](=O)[O-])cc1[N+](=O)[O-]` [fragment 36, 2,4-Dinitrophenyl 3-(7-fluoro-4-oxo-4H-chromen-3-yl)propanoate], for which the “isoTOP-ABPP ratio (R) at liganded lysine P46734_K93” value in assay [1] (50 uM, in vitro) was found to be 0.9. Further, in assay [2] (50 uM, in vitro), the “isoTOP-ABPP ratio (R) at liganded lysine P42345_K2066” value is reported as 3.0. Besides, in assay [5], the “isoTOP-ABPP ratio (R) at liganded lysine P27635_K121” value was 0.5. Further, in assay [3] (50 uM, in vitro), the “isoTOP-ABPP ratio (R) at liganded lysine Q14204_K1649” value is recorded as 1.2. The “isoTOP-ABPP ratio (R) at liganded lysine Q96EL2_K94” value in assay [4] (50 uM, in vitro) worked out at 2.8.
`O=C(Oc1ccc([N+](=O)[O-])cc1[N+](=O)[O-])c1ccc(-c2ccccc2)cc1` [fragment 37, 2,4-Dinitrophenyl [1,1′-biphenyl]-4-carboxylate]: in assay [1] (50 uM, in vitro), the “isoTOP-ABPP ratio (R) at liganded lysine P46734_K93” value is recorded as 0.7. Also, the “isoTOP-ABPP ratio (R) at liganded lysine P42345_K2066” value in assay [2] (50 uM, in vitro) came out at 1.0. Moreover, the “isoTOP-ABPP ratio (R) at liganded lysine P27635_K121” value in assay [5] came to 0.8. The “isoTOP-ABPP ratio (R) at liganded lysine Q96EL2_K94” value in assay [4] (50 uM, in vitro) came to 0.9. Further, in assay [6], the “isoTOP-ABPP ratio (R) at liganded lysine P61978_K405” value is 0.9.
For `O=C(Oc1ccc([N+](=O)[O-])cc1[N+](=O)[O-])c1ccccc1Nc1cccc(C(F)(F)F)c1` [fragment 40, 2,4-Dinitrophenyl 2-((3-(trifluoromethyl)phenyl)amino)benzoate], the “isoTOP-ABPP ratio (R) at liganded lysine P46734_K93” value in assay [1] (50 uM, in vitro) was 1.0. The “isoTOP-ABPP ratio (R) at liganded lysine P42345_K2066” value in assay [2] (50 uM, in vitro) came to 0.8. Besides, the “isoTOP-ABPP ratio (R) at liganded lysine Q14204_K1649” value in assay [3] (50 uM, in vitro) is reported as 0.8. Besides, in assay [6], the “isoTOP-ABPP ratio (R) at liganded lysine P61978_K405” value was 0.9.
With `O=C(Oc1ccc([N+](=O)[O-])cc1[N+](=O)[O-])C(c1ccccc1)(c1ccccc1)c1ccccc1` [fragment 42, 2,4-Dinitrophenyl 2,2,2-triphenylacetate], the “isoTOP-ABPP ratio (R) at liganded lysine P46734_K93” value in assay [1] (50 uM, in vitro) worked out at 0.9. In assay [3] (50 uM, in vitro), the “isoTOP-ABPP ratio (R) at liganded lysine Q14204_K1649” value was found to be 0.8. Also, the “isoTOP-ABPP ratio (R) at liganded lysine Q96EL2_K94” value in assay [4] (50 uM, in vitro) was 1.5.
Regarding `O=C(Oc1c(F)c(F)c(C(F)(F)F)c(F)c1F)c1cc(C(F)(F)F)cc(C(F)(F)F)c1` [fragment 47, 2,3,5,6-Tetrafluoro-4-(trifluoromethyl)phenyl 3,5-bis(trifluoromethyl)benzoate], in assay [1] (50 uM_231_sol_in vitro), the “isoTOP-ABPP ratio, lysine P46734_K93” value turned out to be 1.1. For the same compound, the “isoTOP-ABPP ratio, lysine P42345_K2066” value in assay [2] (50 uM_231_sol_in vitro) is given as 1.1. Moreover, the “isoTOP-ABPP ratio, lysine P27635_K121” value in assay [5] (50 uM_231_sol_in vitro) is 1.1. Besides, the “isoTOP-ABPP ratio, lysine Q14204_K1649” value in assay [3] turned out to be 0.9.
Turning to `O=C(Oc1c(F)c(F)cc(F)c1F)c1cc(C(F)(F)F)cc(C(F)(F)F)c1` [fragment 48, 2,3,5,6-Tetrafluorophenyl 3,5-bis(trifluoromethyl)benzoate], the “isoTOP-ABPP ratio, lysine P46734_K93” value in assay [1] (50 uM_231_sol_in vitro) amounted to 1.1. In addition, the “isoTOP-ABPP ratio, lysine P42345_K2066” value in assay [2] (50 uM_231_sol_in vitro) was found to be 1.0. Also, in assay [5] (50 uM_231_sol_in vitro), the “isoTOP-ABPP ratio, lysine P27635_K121” value amounted to 0.8. For the same compound, the “isoTOP-ABPP ratio, lysine Q96EL2_K94” value in assay [4] (50 uM_231_sol_in vitro) is 1.0.
Turning to `COC(=O)NC(=NC(=O)OCC1c2ccccc2-c2ccccc21)n1cccn1` [fragment 49, N-Methoxycarbonyl-N′-9-fluorenylmethoxycarbonyl-pyrazole-1-carboxamidine], the “isoTOP-ABPP ratio, lysine P46734_K93” value in assay [1] (100 uM_231_sol_in vitro) was found to be 6.8. In assay [2] (100 uM_231_sol_in vitro), the “isoTOP-ABPP ratio, lysine P42345_K2066” value turned out to be 1.0. The “isoTOP-ABPP ratio, lysine P27635_K121” value in assay [5] (100 uM_231_sol_in vitro) is given as 1.8. Further, the “isoTOP-ABPP ratio, lysine Q96EL2_K94” value in assay [4] (100 uM_231_sol_in vitro) is given as 3.0. Further, in assay [6] (100 uM_231_sol_in vitro), the “isoTOP-ABPP ratio, lysine P61978_K405” value is given as 1.9.
With `NC(=O)c1cc(C(F)(F)F)cc(C(F)(F)F)c1` [fragment 51, reference compound], the “isoTOP-ABPP ratio, lysine P46734_K93” value in assay [1] (50 uM_231_sol_in vitro) is given as 1.0. In addition, the “isoTOP-ABPP ratio, lysine P42345_K2066” value in assay [2] (50 uM_231_sol_in vitro) amounted to 0.8. Moreover, in assay [3], the “isoTOP-ABPP ratio, lysine Q14204_K1649” value turned out to be 0.7. The “isoTOP-ABPP ratio, lysine Q96EL2_K94” value in assay [4] (50 uM_231_sol_in vitro) stood at 0.9. For the same compound, the “isoTOP-ABPP ratio, lysine P61978_K405” value in assay [6] (50 uM_231_sol_in vitro) was found to be 1.2.
